Read-outs that look alike come from different tables or passages of the source.
System: L. vannamei shrimp gene expression
Protocol: RNA is extracted using TRIzol® and the Qiagen RNeasy® Mini Kit (Qiagen, Germantown, Md., USA). Shrimp samples immersed in TRIzol® are placed in the FastPrep®-24 (MP Biomedicals LLC, Solon, Ohio, USA) and homogenized during 4° C. for 40 s pulses at 6 m/s. A volume of 200 μL of chloroform is added to a 1.5 mL RNase free tube containing the homogenate material and inverted 15 times. Samples are incubated at room temperature for 3 min before centrifuged at 8000 g for 15 min at 4° C. using the Eppendorf centrifuge. The supernatant is carefully transferred into a new 1.5 mL RNase free tube and the extraction continued following the manufacturer's protocol.
The quality and quantity of RNA are determined by the NanoDrop™ 1000 spectrophotometer (Thermo Fisher Scientific, Waltham, Mass., USA) and Bio-Rad™ (Bio-Rad, Hercules, Calif., USA) using denatured gel electrophoresis with formaldehyde and buffer MOPS 1× (Sambrook, J. 1989. in: «Molecular cloning—a laboratory manual, 2nd ed». J. Sambrook, E. F. Fritsch, T. Maniatis Eds. Cold Spring Harbor, N.Y.: Cold Spring Harbor Laboratory Press).
Microarrays are designed based on publically available gene sequences and ESTs determined from cDNA libraries representing multiple tissues of male and female L. vannamei shrimp, and/or of various physiological conditions.
In total, a length of oligonucleotides about of 61440-mer is included in this study: 39592 shrimp ESTs; 1216 Quality control spots; 112 positive control Alexa-555 dye; 80 positive control Alexa 647 dye; 20320 Unigenes; 16 astringent positive control alexa-555: 16 astringent positive control Alexa-647 dye and 88 negative control empty are submitted to the MYcroarray (University of Michigan, Chemical Engineering Department) for printing on aminosaline glass slides. The exposure and reference sample RNAs are adjusted to final volume 19 μL with oligo d(T) (2 μg/μL) and random primers. (1 μg/μL) in water molecular biology grade. The samples are incubated at 70° C. for 10 min and are then chilled in ice. The samples are mixed finally with 5× Reaction Buffer Superscript II kit (Invitrogen, Life technologies, Carlsbad Calif., USA): 25 mM MgCl2; aminoallyl-dNTP with dUTP (3:1); 0.1 M DTT and 200 U/μL Superscript II Reverse Transcriptase. The mix is incubated at 25° C. for 10 min and then at 42° C. for 2 hours. RNA hydrolysis is made with 5 μL of NaOH 1 N and 1 μL of EDTA 0.5 M. The mixture is incubated at 65° C. for 10 min, and then added 25 μL of HEPES 1 M at pH 7.5. […] The aminoallyl-DNA (aa-DNA) is purified using QIAquick™ (Qiagen, Duesseldorf, Germany). A volume of 7 μL of sodium acetate 3 M and 400 μL binding buffer supplied by the Kit are added. The mixture is allowed to stand 5 min according to the manufacturer's instructions for purification. The eluted aa-DNA is concentrated in a Vacufuge™ until dry and is resuspended in 4.5 μL of sodium bicarbonate 100 mM (pH 9.0). The reaction is conducted in darkness at room temperature overnight. The aa-DNA labeled is purified using QIAquick™ (Qiagen, Duesseldorf, Germany) and eluted with 50 uL water. The aa-DNA labeled is quantified in a Nanodrop™ 1000 spectrophotometer (Thermo Fisher Scientific, Waltham, Mass., USA).
After completely drying in a Vacufuge concentrator, the aa-DNA labeled is resuspended in hybridation mixture containing: ˜0.1 optical density units of aa-DNA labeled from each sample; SSC (5×) buffer; 0.1% SDS; 1× buffer TE. The hybridation mixture is desaturated at 94° C. for 5 min and finally at 65° C. for 30 s. The mixture is placed in the microarray slide previously placed in a chamber for microarray hybridization and covered using a RNase-free plastic coverslip (Hybrislip, Schleicher & Schuell, HS40—40×22 mm; HS22—22×22 mm via Thomas Scientific). The hybridation chamber is incubated at 42° C. overnight.
The slide is placed in a 50 mL conical tube for the first wash and a volume of 50 mL of SSC (1×) buffer and of SDS 0.05% are added for 1 min.

[1] = 2-Down regulated genes, feed 5 mg/g
[2] = 2-Up regulated genes, feed 5 mg/g
[3] = 2-fold Down-regulated genes (treated) versus all genes
[4] = 2-fold Up-regulated genes (treated) versus all genes
[5] = diets supplemented with the complex
[6] = feed 5 mg/g, 14 days, of 262 2-fold Down-regulated genes
[7] = feed 5 mg/g, 14 days, of 583 2-fold Up-regulated genes
[8] = treated vs control shrimp, 57,193 spots available to analysis

SMILES: C[N+](C)(C)CCOB1OB2OB(O1)OB1OB(O2)O1.[Cl-] [choline/pentaborate complex]
- # Enzymes, Aminoacyl-tRNA biosynthesis [1]: 3
- # Enzymes, Ascorbate and aldarate metabolism [1]: 2
- # Enzymes, Glycolysis/Gluconeogenesis [1]: 3
- # Enzymes, Oxidative phosphorylation [1]: 4
- # Enzymes, Pentose and glucuronate interconversions [1]: 2
- # Enzymes, Pentose phosphate pathway [1]: 5
- # Enzymes, Phenylalanine metabolism [1]: 1
- # Enzymes, Phenylpropanoid biosynthesis [1]: 1
- # Enzymes, Purine metabolism [1]: 3
- # Enzymes, Starch and sucrose metabolism [1]: 2
- # Genes, Aminoacyl-tRNA biosynthesis [1]: 3
- # Genes, Ascorbate and aldarate metabolism [1]: 3
- # Genes, Glycolysis/Gluconeogenesis [1]: 3
- # Genes, Oxidative phosphorylation [1]: 6
- # Genes, Pentose and glucuronate interconversions [1]: 3
- # Genes, Pentose phosphate pathway [1]: 5
- # Genes, Phenylalanine metabolism [1]: 3
- # Genes, Phenylpropanoid biosynthesis [1]: 3
- # Genes, Purine metabolism [1]: 4
- # Genes, Starch and sucrose metabolism [1]: 5
- # Enzymes, Amino sugar and nucleotide Sugar metabolism [2]: 7
- # Enzymes, Cytochrome P450 [2]: 3
- # Enzymes, Glutathione metabolism [2]: 5
- # Enzymes, Glycolysis [2]: 8
- # Enzymes, Oxidative phosphorylation [2]: 6
- # Enzymes, Pentose phosphate pathway [2]: 4
- # Enzymes, Purine metabolism [2]: 7
- # Enzymes, Pyruvate metabolism [2]: 6
- # Enzymes, Valine, leucine and isoleucine degradation [2]: 6
- # Genes, Amino sugar and nucleotide Sugar metabolism [2]: 8
- # Genes, Cytochrome P450 [2]: 6
- # Genes, Glutathione metabolism [2]: 7
- # Genes, Glycolysis [2]: 8
- # Genes, Oxidative phosphorylation [2]: 18
- # Genes, Pentose phosphate pathway [2]: 5
- # Genes, Purine metabolism [2]: 14
- # Genes, Pyruvate metabolism [2]: 6
- # Genes, Valine, leucine and isoleucine degradation [2]: 6
- Fisher's exact test GO term Extracellular region part [3]: 5.69%
- Fisher's exact test GO term Gas transport [3]: 2.03%
- Fisher's exact test GO term Oxygen transporter activity [3]: 2.03%
- Fisher's exact test GO term Photoreceptor cell differentiation [3]: 2.43%
- Fisher's exact test GO term Regulation of protein metabolic process [3]: 10.56%
- Fisher's exact test GO term Starch metabolic process [3]: 2.03%
- Fisher's exact test GO term Sucrose metabolic process [3]: 2.03%
- Fisher's exact test GO term Toll-like Receptor for signaling pathway [3]: 1.62%
- Fisher's exact test GO term Translation factor activity, nucleic acid binding [3]: 4.47%
- Fisher's exact test GO term Transporter activity [3]: 10.56%
- Fisher's exact test GO term extracellular region [3]: 9.75%
- Fisher's exact test GO term extracellular space [3]: 4.87%
- Fisher's exact test GO term Actin Cytoskeleton [4]: 4.62%
- Fisher's exact test GO term Calcium Ion Binding [4]: 4.25%
- Fisher's exact test GO term Cytoskeletal Protein Binding [4]: 5.55%
- Fisher's exact test GO term Hydrogen Transport [4]: 4.81%
- Fisher's exact test GO term Ion Transport [4]: 8.15%
- Fisher's exact test GO term Monosaccharide Metabolic Process [4]: 4.10%
- Fisher's exact test GO term Monovalent Inorganic Cation Transport [4]: 5.92%
- Fisher's exact test GO term Positive Regulation of Biosynthetic Process [4]: 3.70%
- Fisher's exact test GO term Positive Regulation of Cellular Biosynthetic Process [4]: 3.70%
- Fisher's exact test GO term Proton Transport [4]: 4.81%
- number of immune related genes that are over-expressed (2-fold Up-regulated, GO term 0006955, feed 5 mg/g, 14 days): at least 33
- number of modulated genes associated to Biogenesis [5]: 59
- number of modulated genes associated to Biological regulation [5]: 73
- number of modulated genes associated to Cellular process [5]: 159
- number of modulated genes associated to Developmental process [5]: 40
- number of modulated genes associated to Localization [5]: 66
- number of modulated genes associated to Metabolic process [5]: 166
- number of modulated genes associated to Response to stimuli [5]: 43
- number of modulated genes associated to Signaling [5]: 26
- number of 2-fold Up-regulated genes (feed 5 mg/g, 14 days): 583
- number of genes with a 2-fold Down-regulated expression (feed 5 mg/g, 14 days): 262
- Down-regulated genes in biological process Biological Regulation [6]: 9%
- Down-regulated genes in biological process Cellular Component Organization or Biogenesis [6]: 7%
- Down-regulated genes in biological process Cellular Process [6]: 20%
- Down-regulated genes in biological process Developmental Process [6]: 5%
- Down-regulated genes in biological process Localization [6]: 8%
- Down-regulated genes in biological process Metabolic Process [6]: 20%
- Down-regulated genes in biological process Multicellular Process [6]: 6%
- Down-regulated genes in biological process Response to Stimulus [6]: 5%
- Down-regulated genes in biological process Signaling [6]: 3%
- Down-regulated genes in biological process Single-organism Process [6]: 17%
- Down-regulated genes with molecular function Binding [6]: 44%
- Down-regulated genes with molecular function Catalytic Activity [6]: 40%
- Down-regulated genes with molecular function Enzyme Regulator Activity [6]: 3%
- Down-regulated genes with molecular function Structural Molecule Activity [6]: 4%
- Down-regulated genes with molecular function Transporter Activity [6]: 9%
- Up-regulated genes in biological process Biological Regulation [7]: 9%
- Up-regulated genes in biological process Cellular Component Organization or Biogenesis [7]: 7%
- Up-regulated genes in biological process Cellular Processes [7]: 20%
- Up-regulated genes in biological process Developmental Process [7]: 6%
- Up-regulated genes in biological process Localization [7]: 7%
- Up-regulated genes in biological process Metabolic Process [7]: 18%
- Up-regulated genes in biological process Multicellular Organismal Process [7]: 6%
- Up-regulated genes in biological process Response to Stimulus [7]: 6%
- Up-regulated genes in biological process Signaling [7]: 4%
- Up-regulated genes in biological process Single-organism Process [7]: 17%
- Up-regulated genes with molecular function Binding Activity [7]: 44%
- Up-regulated genes with molecular function Catalytic Activity [7]: 43%
- Up-regulated genes with molecular function Structural Molecule Activity [7]: 6%
- Up-regulated genes with molecular function Transporter Activity [7]: 7%
- Number of spots, Expression Levels (Score) 1 to 1.5 [8]: 3,662
- Number of spots, Expression Levels (Score) 1.5 to 2 [8]: 1,984
- Number of spots, Expression Levels (Score) <−2 [8]: 1,434
- Number of spots, Expression Levels (Score) >2 [8]: 1,650
- Number of spots, Expression Levels (Score) −1.5 to −1 [8]: 3,221
- Number of spots, Expression Levels (Score) −1.5 to −2 [8]: 1,259
- Number of spots, No regulated genes (−1 to 1) [8]: 43,950

From patent publication US10899776B2, “Antiviral and antibacteria agents based on quaternary ammonium compound complexed with boric acid and its derivatives” (B-Organic Films Corp, priority 2015, dated 2021)
